The numbers were not newly measured in patent publication US5811400A, “Peptide derivatives with δ opioid receptor antagonist or mixed μ agδ antagonist effects” (Astra AB, priority 1994, dated 1998), which cites them from elsewhere.

The series relates to μ opioid receptors. Conditions: GPI assay.

`Oc1ccc2c3c1O[C@H]1c4[nH]c5ccccc5c4C[C@@]4(O)[C@@H](C2)N(CC2CC2)CC[C@]314` [naltrindole]: the “μ antagonist properties (Ke)” value is listed as 29 nM.
